{"source": "patent US20220274979A1", "about": "(Bayer Pharma Aktiengesellschaft, priority 2018, published 2022)", "biological_target": "T1, hSOS1 (hSOS1-mediated loading of hK-RasG12C-GDP) (Homo sapiens, UniProt Q07889)", "T1 construct": "hSOS1 (amino acid 564-1049); made in house; host or cells: E. coli BL21 (DE3)", "T1 sequence (Q07889 with tags, fused parts or gaps)": "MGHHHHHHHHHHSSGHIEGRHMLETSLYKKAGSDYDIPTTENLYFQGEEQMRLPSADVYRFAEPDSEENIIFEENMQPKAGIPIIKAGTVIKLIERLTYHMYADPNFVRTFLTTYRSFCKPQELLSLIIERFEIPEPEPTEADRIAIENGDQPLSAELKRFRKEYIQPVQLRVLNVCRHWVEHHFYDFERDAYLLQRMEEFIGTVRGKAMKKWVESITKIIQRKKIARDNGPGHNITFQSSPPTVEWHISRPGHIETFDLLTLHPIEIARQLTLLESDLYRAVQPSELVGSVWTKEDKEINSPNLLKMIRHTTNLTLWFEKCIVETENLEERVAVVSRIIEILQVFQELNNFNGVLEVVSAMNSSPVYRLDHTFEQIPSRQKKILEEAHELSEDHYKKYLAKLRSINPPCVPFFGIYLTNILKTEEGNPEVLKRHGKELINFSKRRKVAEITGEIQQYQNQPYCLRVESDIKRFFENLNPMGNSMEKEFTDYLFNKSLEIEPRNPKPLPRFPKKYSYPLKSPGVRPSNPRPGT", "test": "Biochemical Assay 3: hK-RasG12C activation assay by hSOS1 (loading with fluorescent GTP analog, HTRF)", "details": "no GTP", "excerpt": "Biochemical Assay 3: hK-RasG12C Activation Assay by hSOS1\nK-Ras is a small GTPase that can bind GDP and GTP. The guanine nucleotide exchange factor SOS1 catalyzes the activation of K-Ras by promoting the exchange of GDP to GTP. SOS1 binds to K-Ras-GDP thereby opening the GDP-binding pocket to facilitate GDP release. Rebinding of excess nucleotide leads to dissociation of the K-Ras-SOS1 intermediate complex leaving K-Ras loaded with the nucleotide.\nThis assay quantifies human SOS1-(hSOS1-)mediated loading of human K-Ras^G12C-GDP (hK-RasG12C-GDP) with a fluorescent GTP-analog. Detection of successful loading is achieved by measuring homogenous time-resolved fluorescence resonance energy transfer (HTRF) from antiGST-Terbium (FRET donor) bound to GST-hK-RasG12C (see below) to the loaded fluorescent GTP analog (FRET-acceptor).\nThe fluorescent GTP-analog EDA-GTP-Dy647P1 (2′/3′-O-(2-Aminoethyl-carbamoyl)-guanosine-5′-triphosphate labelled with Dy647P1 (Dyomics GmbH, Germany)) was synthesized by Jena Biosciences GmbH (Germany) and supplied as a 1 mM aqueous solution.\nThe assay buffer contained 10 mM HEPES pH 7.4 (Applichem), 150 mM NaCl (Sigma), 5 mM MgCl2 (Sigma), 1 mM DTT (Thermofisher), 0.05% BSA Fraction V, pH 7.0, (ICN Biomedicals), 0.0025% (v/v) Igepal (Sigma).\nConcentrations of protein batches used were optimized to be within the linear range of the HTRF signal. A hRas working solution was prepared in assay buffer containing typically 100 nM GST-hK-RasG12C and 2 nM antiGST-Tb (Cisbio, France). A hSOS1 working solution was prepared in assay buffer containing typically 20 nM hSOS1 and 200 nM EDA-GTP-Dy647P1. An inhibitor control solution was prepared in assay buffer containing 200 nM EDA-GTP-Dy647P1 without hSOS1.\nFifty nl of a 100-fold concentrated solution of the test compound in DMSO were transferred into a black microtiter test plate (384 or 1536, Greiner Bio-One, Germany) For this, either a Hummingbird liquid handler (Digilab, Mass., USA) or an Echo acoustic system (Labcyte, Calif., USA) was used.\nAll steps of the assay were performed at 20° C. A volume of 2.5 μl of the hRas working solution was added to all wells of the test plate using a Multidrop dispenser (Thermo Labsystems). After 10 min. preincubation, 2.5 μl of the hSOS1 working solution were added to all wells except for those wells at the side of the test plate that were subsequently filled with 2.5 μl of the inhibitor control solution. After […] incubation the fluorescence was measured with a Pherastar (BMG, Germany) using the HTRF module (excitation 337 nm, emission 1: 620 nm, emission 2:665 nm).\nIC50 values were calculated by 4-Parameter fitting using a commercial software package (Genedata Screener, Switzerland)."}
{"smiles": "CNCc1ccccc1-c1ccc(C(C)Nc2nc(C)nc3cnc(F)cc23)s1", "note": "(centres unmarked) [Example 36, 6-fluoro-2-methyl-N-[1-(5-{2-[(methylamino)methyl]phenyl}thiophen-2-yl)ethyl]pyrido[3,4-d]pyrimidin-4-amine]", "values": [{"measurement": "IC50", "value": "> 20000", "unit": "nM"}]}
{"smiles": "CNCc1ccccc1-c1ccc(C(C)Nc2nc(C)nc3cnc(Oc4ccc(N5CCCC5=O)cc4)cc23)s1", "note": "(centres unmarked) [Example 38, 1-{4-[(2-methyl-4-{[1-(5-{2-[(methylamino)methyl]phenyl}thiophen-2-yl)ethyl]amino}pyrido[3,4-d]pyrimidin-6-yl)oxy]phenyl}pyrrolidin-2-one]", "values": [{"measurement": "IC50", "value": 269, "unit": "nM"}]}
{"smiles": "Cc1nc(N[C@H](C)c2cccc(Br)c2)c2cc(NCCN3CCOCC3)ncc2n1", "note": "[Example 39]", "values": [{"measurement": "IC50", "value": 1640, "unit": "nM"}]}
{"smiles": "Cc1nc(N[C@H](C)c2cccc(Br)c2)c2cc(Oc3cccc(O)c3)ncc2n1", "note": "[Example 40, 3-[(4-{[(1R)-1-(3-bromophenyl)ethyl]amino}-2-methylpyrido[3,4-d]pyrimidin-6-yl)oxy]phenol]", "values": [{"measurement": "IC50", "value": "> 20000", "unit": "nM"}]}
{"smiles": "Cc1nc(N[C@H](C)c2cccc(Br)c2)c2cc(Oc3cccc(C4=NCCN4C)c3)ncc2n1", "note": "[Example 41, N-[(1R)-1-(3-bromophenyl)ethyl]-2-methyl-6-[3-(1-methyl-4,5-dihydro-1H-imidazol-2-yl)phenoxy]pyrido[3,4-d]pyrimidin-4-amine]", "values": [{"measurement": "IC50", "value": 3880, "unit": "nM"}]}
{"smiles": "Cc1nc(N[C@H](C)c2cccc(Br)c2)c2cc(N3CCN(Cc4cccnc4)CC3)ncc2n1", "note": "[Example 43, N-[(1R)-1-(3-bromophenyl)ethyl]-2-methyl-6-[4-(pyridin-3-ylmethyl)piperazin-1-yl]pyrido[3,4-d]pyrimidin-4-amine]", "values": [{"measurement": "IC50", "value": 446, "unit": "nM"}]}
{"smiles": "CC(=O)NCCNc1cc2c(N[C@H](C)c3cccc(Br)c3)nc(C)nc2cn1", "note": "[Example 44, N-{2-[(4-{[(1R)-1-(3-bromophenyl)ethyl]amino}-2-methylpyrido[3,4-d]pyrimidin-6-yl)amino]ethyl}acetamide]", "values": [{"measurement": "IC50", "value": 1640, "unit": "nM"}]}
{"smiles": "Cc1nc(N[C@H](C)c2cccc(Br)c2)c2cc(N3CCNC(=O)C3)ncc2n1", "note": "[Example 45]", "values": [{"measurement": "IC50", "value": 459, "unit": "nM"}]}
{"smiles": "Cc1nc(N[C@H](C)c2cccc(Br)c2)c2cc(NC3CCOCC3)ncc2n1", "note": "[Example 46]", "values": [{"measurement": "IC50", "value": 12800, "unit": "nM"}]}
{"smiles": "Cc1nc(NC(C)c2ccc(-c3ccccc3CN(C)C)s2)c2cc(NCCN3CCOCC3)ncc2n1", "note": "(centres unmarked) [Example 48]", "values": [{"measurement": "IC50", "value": 114, "unit": "nM"}]}
{"smiles": "Cc1nc(N[C@H](C)c2cccc(Br)c2)c2cc(NCCn3cccn3)ncc2n1", "note": "[Example 49, N4-[(1R)-1-(3-bromophenl)pethyl]-2-methyl-N6-[2-(1H-pyrazol-1-yl)ethyl]pyrido[3,4-d]pyrimidine-4,6-diamine]", "values": [{"measurement": "IC50", "value": 6990, "unit": "nM"}]}
{"smiles": "CC(=O)NCCNc1cc2c(NC(C)c3ccc(-c4ccccc4CN(C)C)s3)nc(C)nc2cn1", "note": "(centres unmarked) [Example 51, N-{2-[(4-{[1-(5-{2-[(dimethylamino)methyl]phenyl}thiophen-2-yl)ethyl]amino}-2-methylpyrido[3,4-d]pyrimidin-6-yl)amino]ethyl}acetamide]", "values": [{"measurement": "IC50", "value": 89.5, "unit": "nM"}]}
{"smiles": "Cc1nc(NC(C)c2ccc(-c3ccccc3CN(C)C)s2)c2cc(Oc3cccc(O)c3)ncc2n1", "note": "(centres unmarked) [Example 52, 3-[(4-{[1-(5-{2-[(dimethylamino)methyl]phenyl}thiophen-2-yl)ethyl]amino}-2-methylpyrido[3,4-d]pyrimidin-6-yl)oxy]phenol]", "values": [{"measurement": "IC50", "value": 532, "unit": "nM"}]}
{"smiles": "Cc1nc(NC(C)c2ccc(-c3ccccc3CN(C)C)s2)c2cc(NC3CCOCC3)ncc2n1", "note": "(centres unmarked) [Example 53, N4-[1-(5-{2-[(dimethylamino)methyl]phenyl}-2-thienyl)ethyl]-2-methyl-N6-(tetrahydro-2H-pyran-4-yl)pyrido[3,4-d]pyrimidine-4,6-diamine]", "values": [{"measurement": "IC50", "value": 239, "unit": "nM"}]}
{"smiles": "Cc1nc(NC(C)c2ccc(-c3ccccc3CN(C)C)s2)c2cc(NCCn3cccn3)ncc2n1", "note": "(centres unmarked) [Example 54, N4-[1-(5-{2-[(dimethylamino)methyl]phenyl}-2-thienyl)ethyl]-2-methyl-N6-[2-(1H-pyrazol-1-yl)ethyl]pyrido[3,4-d]pyrimidine-4,6-diamine]", "values": [{"measurement": "IC50", "value": 189, "unit": "nM"}]}
{"smiles": "Cc1nc(NC(C)c2ccc(-c3ccccc3CN(C)C)s2)c2cc(NCCn3ccnc3)ncc2n1", "note": "(centres unmarked) [Example 56, N4-[1-(5-{2-[(dimethylamino)methyl]phenyl}-2-thienyl)ethyl]-N6-[2-(1H-imidazol-1-yl)ethyl]-2-methylpyrido[3,4-d]pyrimidine-4,6-diamine]", "values": [{"measurement": "IC50", "value": 89.5, "unit": "nM"}]}
{"smiles": "COc1cc2c(N[C@H](C)c3cccc(Br)c3)nc(C)nc2cn1", "note": "[Example 57, N-[(1R)-1-(3-bromophenyl)ethyl]-6-methoxy-2-methylpyrido[3,4-d]pyrimidin-4-amine]", "values": [{"measurement": "IC50", "value": 1780, "unit": "nM"}]}
{"smiles": "Cc1nc(NC(C)c2ccc(-c3ccccc3CN(C)C)s2)c2cc(Oc3cccc(C4=NCCN4C)c3)ncc2n1", "note": "(centres unmarked) [Example 58, N-[1-(5-{2-[(dimethylamino)methyl]phenyl}thiophen-2-yl)ethyl]-2-methyl-6-[3-(1-methyl-4,5-dihydro-1H-imidazol-2-yl)phenoxy]pyrido[3,4-d]pyrimidin-4-amine]", "values": [{"measurement": "IC50", "value": 155, "unit": "nM"}]}
{"smiles": "CSc1cc2c(NC(C)c3ccc(-c4ccccc4CN(C)C)s3)nc(C)nc2cn1", "note": "(centres unmarked) [Example 59, N-[1-(5-{2-[(dimethylamino)methyl]phenyl}thiophen-2-yl)ethyl]-2-methyl-6-(methylsulfanyl)pyrido[3,4-d]pyrimidin-4-amine]", "values": [{"measurement": "IC50", "value": 67.7, "unit": "nM"}]}
{"smiles": "CC(=O)NCCOc1cc2c(N[C@H](C)c3cccc(Br)c3)nc(C)nc2cn1", "note": "[Example 62, N-{2-[(4-{[(1R)-1-(3-bromophenyl)ethyl]amino}-2-methylpyrido[3,4-d]pyrimidin-6-yl)oxy]ethyl}acetamide]", "values": [{"measurement": "IC50", "value": 735, "unit": "nM"}]}
{"smiles": "CCOc1cc2c(NC(C)c3ccc(-c4ccccc4CN(C)C)s3)nc(C)nc2cn1", "note": "(centres unmarked) [Example 63, N-[1-(5-{2-[(dimethylamino)methyl]phenyl}thiophen-2-yl)ethyl]-6-ethoxy-2-methylpyrido[3,4-d]pyrimidin-4-amine]", "values": [{"measurement": "IC50", "value": 61.1, "unit": "nM"}]}
{"smiles": "COc1cc2c(NC(C)c3ccc(-c4ccccc4CN(C)C)s3)nc(C)nc2cn1", "note": "(centres unmarked) [Example 64, N-[1-(5-{2-[(dimethylamino)methyl]phenyl}thiophen-2-yl)ethyl]-6-methoxy-2-methylpyrido[3,4-d]pyrimidin-4-amine]", "values": [{"measurement": "IC50", "value": 80.3, "unit": "nM"}]}
{"smiles": "Cc1nc(NC(C)c2ccc(-c3ccccc3CN(C)C)s2)c2cc(OC3CCS(=O)(=O)CC3)ncc2n1", "note": "(centres unmarked) [Example 67, N-[1-(5-{2-[(dimethylamino)methyl]phenyl}thiophen-2-yl)ethyl]-6-[(1,1-dioxidotetrahydro-2H-thiopyran-4-yl)oxy]-2-methylpyrido[3,4-d]pyrimidin-4-amine]", "values": [{"measurement": "IC50", "value": 63.3, "unit": "nM"}]}
{"smiles": "Cc1nc(NC(C)c2ccc(-c3ccccc3CO)s2)c2cc(F)ncc2n1", "note": "(centres unmarked) [Example 68, [2-(5-{1-[(6-fluoro-2-methylpyrido[3,4-d]pyrimidin-4-yl)amino]ethyl}thiophen-2-yl)phenyl]methanol]", "values": [{"measurement": "IC50", "value": "> 20000", "unit": "nM"}]}
{"smiles": "Cc1nc(N[C@H](C)c2cccc(Br)c2)c2cc(OCCCN(C)C)ncc2n1", "note": "[Example 70, N-[(1R)-1-(3-bromophenyl)ethyl]-6-[3-(dimethylamino)propoxy]-2-methylpyrido[3,4-d]pyrimidin-4-amine]", "values": [{"measurement": "IC50", "value": 1340, "unit": "nM"}]}
{"smiles": "Cc1nc(NC(C)c2ccc(-c3ccccc3CN(C)C)s2)c2cc(N3CCC3)ncc2n1", "note": "(centres unmarked) [Example 71, 6-(azetidin-1-yl)-N-[1-(5-{2-[(dimethylamino)methyl]phenyl}thiophen-2-yl)ethyl]-2-methylpyrido[3,4-d]pyrimidin-4-amine]", "values": [{"measurement": "IC50", "value": 82.5, "unit": "nM"}]}
